Data: patent US10513723B2 (AMGEN INC., priority 2014, dated 2019)

How the values were obtained:
[1] = system: Cell line H (CHO cells expressing recombinant antibody); test: Small scale mock perfusion, % high mannose (HILIC glycan map) of the expressed recombinant glycoprotein; type: cell-based, Chinese hamster
Procedure: Cell lines H was used in this study. Cells were maintained in 3 L Erlenmeyer shake flasks (Corning Life Sciences, Lowell, Mass.) with 1 L working volume and cultivated under standard humidified condition at 36° C., 5% CO2, and shaken at 70 rpm in an automatic CO2 incubator (Thermo Fisher Scientific, Waltham, Mass.). Cells were sub-cultured in a selective growth media containing a 500 nM concentration of methotrexate (MTX) every four days, and subsequently transferred, inoculated and cultured in a growth media for four days before being seeded in a 24 wells plate for the experiments described below. […] Different N-glycan species of antibodies were analyzed by hydrophilic-interaction liquid chromatography (HILIC). The purified antibodies were digested by N-glycosidase F (New England BioLabs, Ipswich, Mass.) at 37° C. for 2 hours to release the glycans. The released glycans were labeled with 2-aminobenzoic acid and cleaned up using GlycoClean S cartridges (Prozyme, […], Calif.). Purified glycans were then desalted and reconstituted in water for assay. HILIC chromatography was performed with a 100 mm×2.1 mm i.d BEH Glycan column using UPLC (Waters Corporation, Milford, Mass.) and the eluted glycans were detected, identified, and qualified by a fluorescence detector based on different elution times of different glycans.

[2] = system: Cell line I (expresses an IgG2 antibody); test: Fed-batch 2 L bioreactor culture, % high mannose by peptide mapping glycan profiling; type: cell-based; conditions: single supplement of 0.1 g/L L-ornithine monohydrochloride on day 0 vs ornithine-free control; samples days 6, 8 and 12; FIG. 8
Procedure: Glycan profiling was performed by peptide mapping. […] Specifically, about 50-70 μg of each antibody was denatured and reduced with 7.0 M guanidine.HCl, 6 mM dithiothreitol (DTT) in 0.2 M tris buffer (pH 7.5) at 37° C. for 30 minutes. Each denatured/reduced sample was alkylated with 14 mM iodoacetic acid at 25° C. for 25 minutes, followed by quenching the reaction by adding 8 mM DTT. […] The buffer-exchanged sample was incubated at 37° C. with 3.5 μg trypsin for 60 minutes. Digestion was quenched by adding 2.2 μL of 10% acetic acid. About 12-17 μg of digested antibody was injected for analysis.
The digested antibody was analyzed using an Agilent 1260 HPLC system directly connected to a Thermo Scientific LTQ-Orbitrap Elite mass spectrometer (Thermo Fisher Scientific Inc., Rockford, Ill.). Proteolytic peptides were separated on a Waters BEH 300 C18 column (Waters Corporation, Milford, Mass.) 2.1×150 mm, 1.7μ particle at 40° C. with a flow rate of 0.2 mL/min. Mobile phase A was 0.02% TFA in water and mobile phase B was 0.018% TFA in acetonitrile. Peptides were eluted with a gradient of 0.5-40% B in 90 minutes, followed by column washing and re-equilibration. Mass spectrometer was set up for a full MS scan in the orbitrap with 120,000 resolution followed by five data-dependent CID MS/MS scans in the linear trap with dynamic exclusion.

[3] = system: Cell line H (CHO cells expressing recombinant antibody); conditions: spermine tetrahydrochloride 0, 7, 17, 35 and 100 μM; day 5 samples; FIG. 6
Procedure: Samples were collected on day 5 of the mock perfusion assay. The 35 μM sample served as a control.
An arginine-free formulation of a perfusion media was used for small scale mock perfusion Experiment #3 (arginine concentration studies) according to the experimental design. In small scale mock perfusion Experiment #4 all arginase inhibitors were added to a perfusion media.
Briefly, the CHO cells were seeded in the plate at the targeted density ranging from 10-20×10^6 cells/mL with 3 mL working volume for each well. The cells were cultivated at 36° C., 5% CO2, 85% relative humidity and shaken at 225 rpm in a 50-mm orbital diameter Kuhner incubator (Kuhner AG, Basel, Switzerland) for 3 or 4 days. Every 24 hours, the cells were centrifuged at 200×g for 5 minutes (Beckman Coulter, Brea, Calif.) to collect the spent media and each well was then replenished with 3 mL of fresh media. The collected spent media were analyzed for titer, key metabolites and % high mannose (% HMN) (when necessary). Cells were then harvested and cell counts and viability were measured.
Five different concentrations of spermine were tested in this study. […] The perfusion medium containing 35 μM spermine acted as a control.

[4] = system: Cell line H (CHO cells expressing recombinant antibody); conditions: reduction/depletion of spermine in perfusion medium (0-100 μM)
[5] = first series: four arginase inhibitors at 1, 10 and 20 μM vs inhibitor-free control, FIG. 10
[6] = second series: BEC 0, 10 μM, 0.5 mM, DL-α 0, 10 μM, 1.0 mM, 2.0 mM in perfusion medium, FIG. 11

Cl.NCCC[C@](N)(C(=O)O)C(F)F (racemic) [DL-α, DL-α, Diflouromethylornithine Hydrochloride]
% HM (high mannose glycoform content) [1, 5]: most effective in decreasing % HM | % HM (high mannose glycoform content) [1, 6]: % HM was decreased as both inhibitor concentrations increased

Cl.N=C(N)NCCC[C@H](N)C(=O)O [arginine, arginine monohydrochloride]
% HM (high mannose glycoform content) ([1]; arginine 3.686, 1.843 (control), 1.38, 0.92 and 0.46 g/L in perfusion medium, FIG. 9): as the arginine concentration is increased the % HM increased

Cl.NCCC[C@H](N)C(=O)O [ornithine, L-ornithine monohydrochloride]
% HMN (high mannose glycoform content) [2]: as the ornithine concentration is increased the % HMN increased

Cl.Cl.Cl.Cl.NCCCNCCCCNCCCN [spermine, spermine tetrahydrochloride]
% HMN (high mannose glycoform content) ([1]; spermine tetrahydrochloride 0, 7, 17, 35 (control) and 100 μM in perfusion medium, day 5 samples, FIG. 5): as the spermine concentration was reduced, the % HMN decreased | amount of ornithine (extracellular) [3]: the amount of ornithine decreased with a decrease in spermine concentration | Titer [4]: not affected

S-(2-boronoethyl)-1-cysteine [BEC]
% HM (high mannose glycoform content) [1, 5]: most effective in decreasing % HM | % HM (high mannose glycoform content) [1, 6]: % HM was decreased as both inhibitor concentrations increased
